In patent US12707888B2, “Asymmetric donor-acceptor molecular dyes” (THE UNIVERSITY OF NORTH CAROLINA AT CHARLOTTE, priority 2019, dated 2026):

Columns and labels:
[1] = in cyclohexane; cited from earlier work
[2] = Lippert-Mataga analysis of excited state dipole moments; type: physicochemical; conditions: semi-empirically calculated using the Lippert-Mataga equation
Procedure: The calculated HOMOs/LUMOs indicate that the strong solvatofluorochromism arises from an ICT mechanism, whereby the ground state has significant electron localization on the donor side of the molecule whereas the electron density shifts to the acceptor moiety in the excited state. To more directly quantify the strong ICT character of the TTz dyes, the excited-state dipole moments were calculated using the Lippert-Mataga equation (Eq 1):
[formula] where va and vf are the wavenumbers of the absorption and emission peaks in cm^−1, respectively; μ* and μ are the excited state and ground state dipoles, respectively; ϵ0 is the vacuum permittivity, h is Planck's constant, c is the speed of light, a is the Onsager cavity radius, Δf is the orientation polarizability, ϵ is the relative permittivity, and η is the refractive index. The dipoles were calculated using Spartan 2016 software, and the Onsager cavity radii were calculated using Gaussian '09 software.
FIGS. 9A and 9B show the Stokes shift of Bu2N-TTz-Py and Ph2N-TTz-COOH versus Δf, respectively. From the slopes of the Lippert-Mataga plots, the change between the dipole moments of the ground and excited states can be determined. Even though the Lippert-Mataga equation assumes no specific solvent-solute interactions (e.g. hydrogen bonding) and ignores solute polarizability, high degrees of linearity are apparent; and therefore, the estimations of the excited state dipoles are regarded as reliable. […] Perhaps owing to the minimal solvent interactions and rapid vibrational relaxation, the estimated changes in dipole moments (Δμ) are remarkably large (Table IV). […] Therefore, it is expected that these asymmetric TTzs dyes would be well suited to give high sensitivity in sensing applications whereby small changes in the polarity of the environment can lead to large differences in the wavelengths of fluorescence.

[3] = UV-Vis absorbance, fluorescence emission and quantum yield in organic solvents; type: physicochemical; conditions: for peak absorbance λmax, abs: in DCM
Procedure: The absorption, emission, and fluorescence lifetime characteristics of all four TTz dyes were recorded in a variety of organic solvents (FIGS. 7A-7B, Table of FIG. 8). Additionally, HOMO/LUMO levels of the TTz dyes were determined computationally in Spartan 16 using B3LYP/6-31g. Molar absorptivities of all the TTz dyes ranged from 13,000 to 86,000 cm^−1M^−1. […] However, the peak absorbance of Bu2N-TTz-Py in DCM was slightly red-shifted as compared to that of Ph2N-TTz-Py (λmax, abs=429 nm vs λmax, abs=422 nm in DCM), which is attributed to the diphenylamine moiety having weaker donor characteristics. […] Due to the low estimated ground state dipole moments of the TTz dyes (μ=6-8 D), their wavelengths of absorbance remained relatively solvent independent (st. dev.=±11 nm).
4-pyridine carboxaldehyde, 4-(dibutylamino)benzaldehyde, 4-(diphenylamino)benzaldehyde, terephthalaldehyde, dithiooxamide, and all solvents used for spectroscopic measurements were purchased from Sigma-Aldrich and used without further purification. ^1H and ^13CNMR measurements were obtained with either a JEOL 300 MHz NMR or a JEOL 500 MHz NMR. High resolution mass spectra were obtained using a Thermo Fisher Scientific MSQ Plus Single Quadrupole Mass Spectrometer. Solution-state UV-Vis spectra were collected on a Cary 300 UV-Vis spectrophotometer. Time-resolved measurements were taken on a Jobin Yvon-Spex Fluorolog equipped with a 389 nm diode laser for time-resolved PL decay measurements. Igor Pro 6.3 software was used to fit PL(t) decay data to single/multiple exponential decays. Quantum yields were calculated using 9,10-diphenylanthracene as a reference (quantum yield [ΦF] in cyclohexane=0.97).^40-41 Density functional theory (DFT) calculations were performed with Spartan computational software using B3LYP^42-43 density functional and 6-31G*^44 basis set. Temperature studies were conducted using a 10 μM Bu2N-TTz-Py MeTHF solution placed inside of a Norrell 502 NMR tube and sequentially submerged in the following liquid N2 baths:octanol (−16° C.), acetonitrile (−41° C.), acetone (−94° C.), pentane (−131° C.), MeTHF (−136° C.), and liquid N2 itself (−196° C.). The phosphorescence spectrum of Bu2N-TTz-Py (see S2) was collected similarly at −196° C. by pumping with 389 nm light while inside a liquid nitrogen bath and then probing the emission within 2 sec of removing from the bath. Human embryonic kidney cells (HEK 293T) were a kind gift from Prof. Bryan Dickinson, and Mouse macrophage J774A.1 cells were a kind gift from Prof. Deborah Nelson at the University of Chicago. Cells were cultured in Dulbecco's Modified Eagle's Medium (Invitrogen Corporation, USA) containing 10% heat inactivated Fetal Bovine Serum (FBS) (Invitrogen Corporation, USA), 100 U/mL penicillin, and 100 μg/mL streptomycin. Cells were maintained at 37° C. under 5% CO2.

[4] = TCSPC fluorescence lifetime in solvents; type: physicochemical
From the text: TCSPC measurements of the TTz dyes show a general upward trend for fluorescent lifetimes as the polarity increases in aprotic solvents—from 1.50-1.89 ns in nonpolar solvents to ~3.00 ns in polar, aprotic solvents (Table of FIG. 8). The fluorescence lifetimes in protic solvents have the opposite trend; that is, a decrease in the fluorescence lifetime as the polarity increases (e.g. for Ph2N-TTz-COOH: τf, iPrOH=2.40 ns, τf, MeOH=1.80 ns). The trend reversal in the fluorescence lifetime can most likely be attributed to the presence of hydrogen bonding in protic solvents. […] At the same time, the non-radiative rates of each TTz generally increases as solvent polarity increases. […] Regardless, the fact that the fluorescence lifetimes are solvent dependent opens up the possibility of using these TTz dyes for measuring micelle formation and viscosity in living cells using fluorescence lifetime imaging (FLIM).
4-pyridine carboxaldehyde, 4-(dibutylamino)benzaldehyde, 4-(diphenylamino)benzaldehyde, terephthalaldehyde, dithiooxamide, and all solvents used for spectroscopic measurements were purchased from Sigma-Aldrich and used without further purification. ^1H and ^13CNMR measurements were obtained with either a JEOL 300 MHz NMR or a JEOL 500 MHz NMR. High resolution mass spectra were obtained using a Thermo Fisher Scientific MSQ Plus Single Quadrupole Mass Spectrometer. […]

SMILES | quantum yield [ΦF] of reference [1] | Change in Dipole Δμ [2] [D] | Excited State Dipole μ* [2] [D] | peak absorbance λmax, abs [3] [nm] | fluorescence lifetime τf, MeOH ([4]; MeOH) [ns] | fluorescence lifetime τf, iPrOH ([4]; iPrOH) [ns] | largest Stokes shift ([3]; largest across solvents) [eV]
c1ccc(-c2c3ccccc3c(-c3ccccc3)c3ccccc23)cc1 [9,10-diphenylanthracene] | 0.97 |  |  |  |  |  | 
O=Cc1ccc(-c2nc3sc(-c4ccc(N(c5ccccc5)c5ccccc5)cc4)nc3s2)cc1 [Ph2N-TTz-CHO, 2-(N,N-diphenyl-4-aminophenyl)-5-(4-formylphenyl) thiazolo[5,4-d]thiazole] |  | 18.0 | 24.9 | 434 |  |  | 
O=C(O)c1ccc(-c2nc3sc(-c4ccc(N(c5ccccc5)c5ccccc5)cc4)nc3s2)cc1 [Ph2N-TTz-COOH, 2-(N,N-diphenyl-4-aminophenyl)-5-(4-carboxyphenyl) thiazolo[5,4-d]thiazole] |  | 13.0 | 21.3 |  | 1.80 | 2.40 | 
c1ccc(N(c2ccccc2)c2ccc(-c3nc4sc(-c5ccncc5)nc4s3)cc2)cc1 [Ph2N-TTz-Py, 2-(N,N-diphenyl-4-aminophenyl)-5-(4-pyridyl) thiazolo[5,4-d]thiazole] |  | 14.6 | 20.8 | 422 |  |  | 0.750
